Reference: the NIST ThermoML archive (doi:10.1021/je500594z)

Experiment: xn = mol fraction of the nth substance listed
Conditions: 101 kPa, Liquid; for viscosity: Falling or rolling sphere viscometry; for speed of sound: Sing-around technique in a fixed-path interferometer; for mass density: Vibrating tube method

CCn1cc[n+](C)c1.O=S(=O)([N-]S(=O)(=O)C(F)(F)F)C(F)(F)F + CCO
Conditions | mass density [kg/m3] | speed of sound [m/s] | viscosity [mPa·s]
278.15 K, x1 = 0.051 | 946.21 | 1201.4 | 2.42
278.15 K, x1 = 0.102 | 1052.67 | 1199.9 | 3.44
278.15 K, x1 = 0.198 | 1191.39 | 1210.6 | 5.9
278.15 K, x1 = 0.292 | 1281.48 | 1224.4 | 8.91
278.15 K, x1 = 0.402 | 1356.04 | 1239.1 | 13.41
278.15 K, x1 = 0.501 | 1405.04 | 1250.3 | 18.24
278.15 K, x1 = 0.619 | 1449.8 | 1261.2 | 25.83
278.15 K, x1 = 0.71 | 1476.96 | 1268.1 | 33.19
278.15 K, x1 = 0.811 | 1502.1 | 1274.8 | 43.83
278.15 K, x1 = 0.907 | 1521.68 | 1280 | 56.33
278.15 K, x1 = 1 | 1538.23 | 1284.9 | 75.08
298.15 K, x1 = 0.051 | 927.85 | 1139.3 | 1.57
298.15 K, x1 = 0.102 | 1033.54 | 1142.6 | 2.16
298.15 K, x1 = 0.198 | 1171.44 | 1158.2 | 3.47
298.15 K, x1 = 0.292 | 1261.14 | 1174.5 | 5.02
298.15 K, x1 = 0.402 | 1335.52 | 1190.9 | 7.16
298.15 K, x1 = 0.501 | 1384.32 | 1203 | 9.66
298.15 K, x1 = 0.619 | 1429.22 | 1214.6 | 13.22
298.15 K, x1 = 0.71 | 1456.41 | 1222 | 16.41
298.15 K, x1 = 0.811 | 1481.59 | 1229 | 20.91
298.15 K, x1 = 0.907 | 1501.19 | 1234.4 | 25.67
298.15 K, x1 = 1 | 1517.76 | 1240.1 | 32.02
318.15 K, x1 = 0.051 | 909.21 | 1079.4 | 1.09
318.15 K, x1 = 0.102 | 1014.18 | 1087.3 | 1.46
318.15 K, x1 = 0.198 | 1151.39 | 1107.7 | 2.27
318.15 K, x1 = 0.292 | 1240.83 | 1126.5 | 3.21
318.15 K, x1 = 0.402 | 1315.11 | 1144.5 | 4.59
318.15 K, x1 = 0.501 | 1363.99 | 1157.6 | 5.85
318.15 K, x1 = 0.619 | 1408.9 | 1170 | 7.84
318.15 K, x1 = 0.71 | 1436.15 | 1177.9 | 9.67
318.15 K, x1 = 0.811 | 1461.4 | 1185.3 | 11.96
318.15 K, x1 = 0.907 | 1481.05 | 1191.2 | 14.35
318.15 K, x1 = 1 | 1497.65 | 1196.6 | 17.32
338.15 K, x1 = 0.051 | 889.98 | 1020.7 | 0.79
338.15 K, x1 = 0.102 | 994.4 | 1033.2 | 1.05
338.15 K, x1 = 0.198 | 1131.14 | 1058.3 | 1.6
338.15 K, x1 = 0.292 | 1220.47 | 1079.7 | 2.23
338.15 K, x1 = 0.402 | 1294.8 | 1099.7 | 3.16
338.15 K, x1 = 0.501 | 1343.74 | 1113.9 | 3.99
338.15 K, x1 = 0.619 | 1388.81 | 1127.3 | 5.23
338.15 K, x1 = 0.71 | 1416.16 | 1135.6 | 6.35
338.15 K, x1 = 0.811 | 1441.5 | 1143.7 | 7.7
338.15 K, x1 = 0.907 | 1461.23 | 1150 | 9.11
338.15 K, x1 = 1 | 1477.86 | 1155.8 | 10.82

CCCCCC[n+]1ccn(C)c1.O=S(=O)([N-]S(=O)(=O)C(F)(F)F)C(F)(F)F + CCO
Conditions | mass density [kg/m3] | speed of sound [m/s] | viscosity [mPa·s]
278.15 K, x1 = 0.047 | 933.23 | 1208.7 | 2.69
278.15 K, x1 = 0.097 | 1026.67 | 1211.4 | 4.32
278.15 K, x1 = 0.198 | 1146.24 | 1222.7 | 9.53
278.15 K, x1 = 0.292 | 1215.04 | 1233.9 | 16.27
278.15 K, x1 = 0.39 | 1263.14 | 1242.8 | 25.73
278.15 K, x1 = 0.47 | 1292.55 | 1250.3 | 35.73
278.15 K, x1 = 0.596 | 1327.21 | 1258.1 | 56.91
278.15 K, x1 = 0.694 | 1347.34 | 1262.6 | 79.17
278.15 K, x1 = 0.799 | 1364.86 | 1267.2 | 112.54
278.15 K, x1 = 0.903 | 1379.2 | 1271.2 | 154.54
278.15 K, x1 = 1 | 1390.3 | 1274.6 | 211.31
298.15 K, x1 = 0.047 | 915.22 | 1145.7 | 1.73
298.15 K, x1 = 0.097 | 1008.17 | 1152.5 | 2.61
298.15 K, x1 = 0.198 | 1127.27 | 1168.4 | 4.98
298.15 K, x1 = 0.292 | 1195.96 | 1181.9 | 7.97
298.15 K, x1 = 0.39 | 1244.05 | 1192.3 | 12.1
298.15 K, x1 = 0.47 | 1273.5 | 1200.6 | 15.94
298.15 K, x1 = 0.596 | 1308.27 | 1209.2 | 23.72
298.15 K, x1 = 0.694 | 1328.48 | 1214.1 | 31.3
298.15 K, x1 = 0.799 | 1346.07 | 1218.9 | 41.44
298.15 K, x1 = 0.903 | 1360.48 | 1223.1 | 53.7
298.15 K, x1 = 1 | 1371.64 | 1226.8 | 70.46
318.15 K, x1 = 0.047 | 896.92 | 1085 | 1.18
318.15 K, x1 = 0.097 | 989.44 | 1095.9 | 1.71
318.15 K, x1 = 0.198 | 1108.22 | 1116.3 | 3.05
318.15 K, x1 = 0.292 | 1176.89 | 1131.9 | 4.64
318.15 K, x1 = 0.39 | 1225.05 | 1143.8 | 6.7
318.15 K, x1 = 0.47 | 1254.61 | 1153 | 8.61
318.15 K, x1 = 0.596 | 1289.55 | 1162.6 | 12.33
318.15 K, x1 = 0.694 | 1309.88 | 1168 | 15.72
318.15 K, x1 = 0.799 | 1327.59 | 1173.4 | 20.13
318.15 K, x1 = 0.903 | 1342.08 | 1178 | 24.94
318.15 K, x1 = 1 | 1353.31 | 1182 | 30.22
338.15 K, x1 = 0.047 | 878.04 | 1025.6 | –
338.15 K, x1 = 0.097 | 970.28 | 1040.6 | –
338.15 K, x1 = 0.198 | 1088.96 | 1065.5 | –
338.15 K, x1 = 0.292 | 1157.75 | 1083.5 | –
338.15 K, x1 = 0.39 | 1206.1 | 1097 | –
338.15 K, x1 = 0.47 | 1235.83 | 1107.2 | –
338.15 K, x1 = 0.596 | 1271.01 | 1118 | –
338.15 K, x1 = 0.694 | 1291.5 | 1124 | –
338.15 K, x1 = 0.799 | 1309.35 | 1130 | –
338.15 K, x1 = 0.903 | 1323.94 | 1135.2 | –
338.15 K, x1 = 1 | 1335.25 | 1139.3 | –
